Source: patent publication US20040209843A1, “Aqueous cilostazol preparation for injection” (priority 2001, published 2004)
Values after ≈ are worked out from the molar mass of the structure shown.

Assays:
[1] = saturated concentration (solubility) of cilostazol in aqueous cyclodextrin solutions, determined by HPLC; format: physicochemical; conditions: aqueous with cosolvent or surfactant or cyclodextrin, thermodynamic from solid; excess cilostazol in water for injection with the row's cyclodextrin compound at the row's concentration (g/L); shaken at 60° C. for 24 hours, membrane filtered, HPLC of filtrate
Method: Each of the following cyclodextrin compounds was dissolved in water for injection. To this, an excess amount of cilostazol was added and the mixture was shaken at 60° C. for 24 hours. Then, the mixture was filtered through a membrane filter to remove insoluble materials and the amount of cilostazol in the filtrate was determined by the method of HPLC (High Performance Liquid Chromatography) to calculate the saturated concentration (solubility). Cyclodextrin compounds used were alpha-cyclodextrin (Trade Name: Celdex A-100, manufactured by NIHON SHOKUHIN KAKO Co. Ltd., beta-cyclodextrin (Trade Name: Celdex B-100, manufactured by NIHON SHOKUHIN KAKO Co. Ltd.), gamma-cyclodextrin (Trade Name: Celdex C-100, manufactured by NIHON SHOKUHIN KAKO Co. Ltd.), 6-O-alpha-maltosyl-beta-cyclodextrin (manufactured by Ensuiko Sugar Refining Co., Ltd), 2-hydroxypropyl-beta-cyclodextrin (Trade Name: Celdex HP-beta-CD, manufactured by NIHON SHOKUHIN KAKO Co. Ltd), hepta-substituted sulfobutylether-beta-cyclodextrin sodium salt (hereinafter abbreviated as SBE7-beta-CD)(Trade Name: Captisol, manufactured by CyDex Inc.).
Also, as a Reference Example, the solubility of cilostazol without addition of cyclodextrin compounds was determined similarly.

[2] = ordinary temperatures; cited from earlier work

In the case of `O=C1CCc2cc(OCCCCc3nnnn3C3CCCCC3)ccc2N1` [Cilostazol, 6-[4-(1-cyclohexyl-1,2,3,4-Tetrazol-5-yl)butoxy]-3,4-dihydrocarbostyril], the solubility at 24 h [1] is listed as 3.5 µg/mL (≈ 9.47 µM) and the solubility in water [2] is listed as “about 3 μg/ml”.
